One assay deals with T1, F1F0-ATPase (Bos taurus, UniProt P13621).
T1 construct: from tissue
The assay can be described thus: Inhibition of F1F0-ATPase activity in synthesizing ATP (ATP synthesis inhibition). The assay is classed as biochemical. The settings on record: detection limit IC50=16 μM, read-out: ATP Syn IC50. The protocol:
(§1) Exemplary compounds described in above Examples were tested for activity against F1F0-ATPase by measuring the ability of the compounds to inhibit ATP synthesis. In addition, the compounds were assessed for cytotoxicity in Ramos cells. Inhibition of F1F0-ATPase activity in synthesizing ATP and cytotoxicity in Ramos cells were measured according to the procedures described in K. M. Johnson et al. Chemistry & Biology 2005, 12, 485-496.

The subject of the next assay is Ramos cells. In words: Cytotoxicity in Ramos cells. The assay is classed as cell-based. To be noted: detection limit EC50=16 μM, read-out: Ramos Cell EC50. As for the experimental part:
as §1

For 34 compounds, IC50 and EC50 results are on record in patent US9221814B2, “Heterocyclic guanidine F1F0-atpase inhibitors and therapeutic uses thereof” (Lycera Corporation, priority 2012, dated 2015).

As usually defined, the IC50 is the concentration that inhibits the measured activity by half. By EC50 is commonly meant the concentration that produces a half-maximal response.

Read-outs that look alike come from different tables or passages of the source.

`Cc1cc(C(=O)/N=C(\Nc2cc(-c3ccc(F)cc3)n[nH]2)NC(C)C)c(C(F)(F)F)o1` [Compound A-195]: at F1F0-ATPase, the IC50 was below 5 µM. The EC50 in the assay with Ramos cells is 5 to 16 µM.

Take `CCC(C)N/C(=N/C(=O)c1nc(C)oc1C)Nc1cc(-c2ccc(F)cc2)n[nH]1` (centres unmarked) [Compound A-196]: the IC50 on F1F0-ATPase was in the range of 5 to 16 µM. In addition, the EC50 in the assay on Ramos cells was below 5 µM.

For the compound `CCC(C)N/C(=N/C(=O)c1cc(C)oc1C)Nc1cc(-c2ccc(F)cc2)n[nH]1` (centres unmarked) [Compound A-197], the IC50 at F1F0-ATPase lay within 5 to 16 µM. In addition, the EC50 in the assay on Ramos cells lay in the range of 5 to 16 µM.

On to `O=C(/N=C(/NCc1ccc(F)cc1Cl)Nc1cc(C(F)(F)F)n[nH]1)c1nccs1` [Compound A-198], for which the IC50 on F1F0-ATPase is below 5 µM. In the assay on Ramos cells, the EC50 was below 5 µM.

For `CCOCCCNC(=NC(=O)c1cc(C)oc1C(F)(F)F)Nc1cc(-c2ccc(F)cc2)n[nH]1` [Compound A-199], the IC50 at F1F0-ATPase was below 5 µM. For the same compound, in the assay with Ramos cells (Homo sapiens), the EC50 was below 5 µM.

With `CCOCCCN/C(=N/C(=O)c1cc(C)oc1C(F)(F)F)Nc1cc(-c2cc(F)cc(F)c2)n[nH]1` [Compound A-200], on F1F0-ATPase, the IC50 was below 5 µM. Moreover, in the assay with Ramos cells, the EC50 was in the range of 5 to 16 µM.

As to `CC(C)CN/C(=N/C(=O)c1cn(C)nc1C(F)(F)F)Nc1n[nH]c2cc(Cl)ccc12` [Compound A-201], the IC50 on F1F0-ATPase is below 5 µM. Moreover, the EC50 in the assay with Ramos cells is above 16 µM.

As to `COCC(C)NC(=NC(=O)c1cn(C)nc1C(F)(F)F)Nc1n[nH]c2cc(Cl)ccc12` (centres unmarked) [Compound A-202], the IC50 at F1F0-ATPase was below 5 µM. Also, the EC50 in the assay with Ramos cells was below 5 µM.

On to `Cc1cc(C(=O)/N=C(/NCC(C)C)Nc2cc(-c3ccc(F)cc3)n[nH]2)c(C(F)(F)F)o1` [Compound A-203], for which, on F1F0-ATPase, the IC50 was below 5 µM. In addition, in the assay on Ramos cells, the EC50 is below 5 µM.

As for `CCC(C)N/C(=N/C(=O)c1cc(C)oc1C(F)(F)F)Nc1cc(-c2ccc(F)cc2)n[nH]1` (centres unmarked) [Compound A-204], at F1F0-ATPase, the IC50 was below 5 µM. In the assay on Ramos cells, the EC50 was below 5 µM.

Turning to `CC(C)CN/C(=N/C(=O)c1cn(C)nc1C(F)(F)F)Nc1n[nH]c2cc(F)ccc12` [Compound A-205], the IC50 on F1F0-ATPase is above 16 µM. The concentration giving a half-maximal response (EC50) in the assay with Ramos cells was above 16 µM.

With `Cn1cc(C(=O)/N=C(\Nc2n[nH]c3cc(F)ccc23)NC(C)(C)C)c(C(F)(F)F)n1` [Compound A-206], the IC50 on F1F0-ATPase was in the range of 5 to 16 µM. Besides, in the assay with Ramos cells, the EC50 is below 5 µM.

Consider `COCC(C)NC(=NC(=O)c1cn(C)nc1C(F)(F)F)Nc1n[nH]c2cc(F)ccc12` (centres unmarked) [Compound A-207], for which, on F1F0-ATPase, the IC50 was above 16 µM. Also, the EC50 in the assay on Ramos cells is above 16 µM.

In the case of `CC(C)(C)CN/C(=N/C(=O)c1ccc(Cl)s1)Nc1cc(C(F)(F)F)n[nH]1` [Compound A-208], on F1F0-ATPase, the IC50 is below 5 µM. Besides, the EC50 in the assay with Ramos cells was below 5 µM.

As to `O=C(/N=C(\Nc1cc(C(F)(F)F)n[nH]1)NC1CCOCC1)c1ccc(Cl)s1` [Compound A-209], the IC50 on F1F0-ATPase was below 5 µM. Besides, the EC50 in the assay with Ramos cells is below 5 µM.

For `O=C(/N=C(/Nc1cc(F)cc(Cl)c1)Nc1cc(C(F)(F)F)n[nH]1)c1ccc(Cl)s1` [Compound A-210], the IC50 at F1F0-ATPase was below 5 µM. In the assay with Ramos cells, the EC50 was below 5 µM.

With `CC(C)(C)N/C(=N/C(=O)c1ccc(Cl)s1)Nc1cc(C(F)(F)F)n[nH]1` [Compound A-211], at F1F0-ATPase, the IC50 was below 5 µM. The EC50 with Ramos cells was below 5 µM.

Consider `CCOC(=O)NC1CCC(N/C(=N\C(=O)c2cc(C)oc2C(F)(F)F)Nc2cc(OC)ccc2C)CC1` (centres unmarked) [Compound A-212], for which the IC50 on F1F0-ATPase was below 5 µM. Besides, the EC50 in the assay with Ramos cells (Homo sapiens) fell in the range of 5 to 16 µM.

On to `CCOC(=O)NC1CCC(N/C(=N\C(=O)c2cc(C)oc2C(F)(F)F)Nc2ccccc2OC)CC1` (centres unmarked) [Compound A-213], for which, at F1F0-ATPase, the IC50 was below 5 µM. The EC50 with Ramos cells (Homo sapiens) is above 16 µM.

`CCOC(=O)NC1CCC(N/C(=N\C(=O)c2cc(C)oc2C(F)(F)F)Nc2ccccc2C(F)(F)F)CC1` (centres unmarked) [Compound A-214]: the IC50 at F1F0-ATPase is below 5 µM. The EC50 in the assay on Ramos cells (Homo sapiens) is above 16 µM.

In the case of `CCOC(=O)NC1CCC(N/C(=N\C(=O)c2cc(C)oc2C(F)(F)F)Nc2cc(Cl)ccc2OC)CC1` (centres unmarked) [Compound A-215], the IC50 at F1F0-ATPase is below 5 µM. In addition, in the assay with Ramos cells (Homo sapiens), the EC50 was 5 to 16 µM.

As for `CCOC(=O)NC1CCC(N/C(=N\C(=O)c2cc(C)oc2C(F)(F)F)Nc2ccccc2C)CC1` (centres unmarked) [Compound A-216], on F1F0-ATPase, the IC50 was below 5 µM. The EC50 with Ramos cells (Homo sapiens) is 5 to 16 µM.

As to `CCOC(=O)NC1CCC(N/C(=N/C(=O)c2cn(C)nc2C(F)(F)F)Nc2cc(F)cc(F)c2)CC1` (centres unmarked) [Compound A-217], at F1F0-ATPase, the IC50 was above 16 µM. Moreover, the EC50 in the assay on Ramos cells (Homo sapiens) is above 16 µM.

In the case of `CCOC(=O)NC1CCC(N/C(=N/C(=O)c2cn(C)nc2C(F)(F)F)NCc2ccc(Cl)c(F)c2)CC1` (centres unmarked) [Compound A-218], the IC50 at F1F0-ATPase is above 16 µM. For the same compound, the EC50 in the assay with Ramos cells (Homo sapiens) is 5 to 16 µM.

With `CCOC(=O)NC1CCC(N/C(=N/C(=O)c2cn(C)nc2C(F)(F)F)Nc2cc(F)cc(Cl)c2)CC1` (centres unmarked) [Compound A-219], on F1F0-ATPase, the IC50 was 5 to 16 µM. Besides, in the assay with Ramos cells (Homo sapiens), the EC50 lay within 5 to 16 µM.

Regarding `Cc1cc(C(=O)/N=C(/Nc2cc(F)cc(Cl)c2)Nc2cc(C(F)(F)F)nn2C(C)C)on1` [Compound A-225], at F1F0-ATPase, the IC50 is below 5 µM. In addition, the EC50 with Ramos cells (Homo sapiens) was below 5 µM.

`Cc1cc(C(=O)/N=C(/Nc2cc(F)cc(Cl)c2)Nc2c(C)c(C(F)(F)F)nn2CCO)on1` [Compound A-226]: the IC50 on F1F0-ATPase is below 5 µM. The EC50 with Ramos cells (Homo sapiens) lay within 5 to 16 µM.

Regarding `Cc1cc(C(=O)/N=C(/Nc2cc(F)cc(Cl)c2)Nc2cc(C(F)(F)F)nn2C)on1` [Compound A-228], the IC50 on F1F0-ATPase is below 5 µM. Further, in the assay with Ramos cells (Homo sapiens), the EC50 was below 5 µM.

`Cc1cc(C(=O)/N=C(\Nc2ccc(C(F)(F)F)nc2)Nc2cccc(Cl)c2)n(C)n1` [Compound A-230]: the IC50 at F1F0-ATPase was below 5 µM. Further, the EC50 in the assay on Ramos cells (Homo sapiens) was below 5 µM.

Consider `Cc1cc(C(=O)/N=C(\Nc2ccc(C(F)(F)F)nc2)Nc2cc(F)cc(Cl)c2)on1` [Compound A-231], for which the IC50 at F1F0-ATPase is below 5 µM. Also, the EC50 in the assay with Ramos cells (Homo sapiens) is below 5 µM.

For the compound `Cc1cc(C(=O)/N=C(\Nc2ccc(C(F)(F)F)nc2)Nc2cccc(Cl)c2)on1` [Compound A-232], on F1F0-ATPase, the IC50 is below 5 µM. The EC50 in the assay on Ramos cells (Homo sapiens) was below 5 µM.

As to `Cc1cc(C(=O)/N=C(\Nc2ccc(C(F)(F)F)nc2)Nc2cccc(C(F)(F)F)c2)on1` [Compound A-233], the IC50 at F1F0-ATPase was below 5 µM. Besides, the EC50 in the assay with Ramos cells (Homo sapiens) was below 5 µM.

Consider `Cn1cc(C(=O)/N=C(/Nc2cc(F)cc(Cl)c2)Nc2cccc(O)n2)c(C(F)(F)F)n1` [Compound A-234], for which, on F1F0-ATPase, the IC50 is below 5 µM. Moreover, the EC50 in the assay on Ramos cells (Homo sapiens) was below 5 µM.

As for `Cn1nc(C(C)(C)C)cc1C(=O)N/C(=N/c1cccc(O)n1)Nc1cc(F)cc(Cl)c1` [Compound A-235], the IC50 on F1F0-ATPase is below 5 µM. Moreover, the half-maximal effective concentration (EC50) in the assay on Ramos cells (Homo sapiens) was below 5 µM.
